Test results from patent publication US9074009B2, “Stabilized MAML peptides and uses thereof” (Dana-Farber Cancer Institute, Inc., priority 2006, dated 2015).
Bridge positions count the residues as written; N and C are the ends. Square brackets hold non-standard residues; d marks the D form. Peptide text beside a SMILES is read from it. * marks the point of attachment. Biotin = O=C1N[C@H]2[C@H](CS[C@H]2CCCCC(=O)*)N1; S5 = C=CCCC[C@](C)(N)C(=O)O; βAla = NCCC(=O)O

What was measured:
[1] = biological target: T1, ICN and CSL (Homo sapiens, UniProt P46531+Q06330); experiment: Immunoprecipitation from T-ALL (KOPTK1) cell lysates; type: binding; settings: FIG. 19
T1 construct: endogenous in cells; host or cells: KOPTK1 (T-ALL) cell lysates

[2] = test system: CSL-responsive reporter; experiment: CSL-responsive reporter in transfected MOLT4 cells; type: cell-based; settings: FIG. 12
From the text: MOLT4 cells transfected with a CSL-responsive reporter were used to test whether stapled SAHN11 can interfere with Notch-mediated activation of transcription.

[3] = test system: Notch complex mediated transcription; experiment: Beta-lactamase gene under CSL responsive promoter in T-ALL cells (MOLT4); type: cell-based; settings: decrease similar to RNAi against Notch or lactamase, FIG. 22
From the text: T-ALL cells (MOLT4) harboring a beta-lactamase gene under the control of a CSL responsive promoter was used to study the effect of SAHN1 and SAHN11 on Notch complex mediated transcription.

[4] = test system: MOLT4 cells; experiment: Viability of MOLT4 cells; type: cell-based; settings: FIG. 14 and 17
[5] = test system: TALL1 cells; experiment: Viability of TALL1 cells; type: cell-based; settings: FIG. 18
[6] = Circular dichroism spectra, alpha helicity; type: physicochemical; settings: cross-linked vs not cross-linked, FIG. 5
From the text: FIG. 4 is a schematic drawing and detailed structural depiction of a modified polypeptide having the sequence of REM-G1 (SAHN1).

[7] = biological target: T2, ICN1 bound to immunoprecipitated MAML (Homo sapiens, UniProt P46531+Q06330); experiment: Competition for ICN1 bound to immunoprecipitated MAML in T-ALL cellular lysates; type: binding; settings: FIG. 20 and 21
T2 construct: endogenous in cells

[8] = test system: Cells; type: cell-based
Method: Automated quantitative immunofluorescence was used to determine the intracellular distribution of fluorophore-labeled stapled alpha helices. Cells were incubated with FITC-conjugated peptides SAHN1, SAHN2, or SAHN6; or control. At 16 hours measurements of cellular fluorescence were taken using epifluorescence microscopy. The results of these studies are shown in FIG. 10 in which each circle represents an individual cell and each column represents a treatment condition.
Automated quantitative immunofluorescence was also used to determine the intracellular distribution of fluorophore-labeled stapled alpha helices. Cells were incubated with FITC-conjugated peptides SAHN1, or unstapled SAHN1.

[9] = test system: HES1; experiment: HES1 expression in T-ALL cells (MOLT4); type: cell-based; settings: FIG. 23
From the text: (§1) The results of this analysis are show in FIG. 23.

[10] = test system: HEY1; experiment: HEY1 expression in T-ALL cells (MOLT4); type: cell-based; settings: FIG. 23
From the text: as §1

[11] = test system: ALL-SIL cells; experiment: Viability of ALL-SIL cells; type: cell-based; settings: FIG. 15
[12] = test system: KOPTK1 cells; type: cell-based
From the text: The results of this analysis are show in FIG. 25.

[13] = test system: gamma secretase resistant T-ALL cells (MOLT4); experiment: Apoptotic response in gamma secretase resistant T-ALL cells (MOLT4); type: cell-based; settings: MOLT4, after 24 or 48 hours, FIG. 24
From the text: The results of this analysis are show in FIG. 24.

[14] = test system: neoplastic murine lymphocytes derived from transgenic mice harboring human Notch mutations

T1 sequence (P46531 1754-2555 limits assumed): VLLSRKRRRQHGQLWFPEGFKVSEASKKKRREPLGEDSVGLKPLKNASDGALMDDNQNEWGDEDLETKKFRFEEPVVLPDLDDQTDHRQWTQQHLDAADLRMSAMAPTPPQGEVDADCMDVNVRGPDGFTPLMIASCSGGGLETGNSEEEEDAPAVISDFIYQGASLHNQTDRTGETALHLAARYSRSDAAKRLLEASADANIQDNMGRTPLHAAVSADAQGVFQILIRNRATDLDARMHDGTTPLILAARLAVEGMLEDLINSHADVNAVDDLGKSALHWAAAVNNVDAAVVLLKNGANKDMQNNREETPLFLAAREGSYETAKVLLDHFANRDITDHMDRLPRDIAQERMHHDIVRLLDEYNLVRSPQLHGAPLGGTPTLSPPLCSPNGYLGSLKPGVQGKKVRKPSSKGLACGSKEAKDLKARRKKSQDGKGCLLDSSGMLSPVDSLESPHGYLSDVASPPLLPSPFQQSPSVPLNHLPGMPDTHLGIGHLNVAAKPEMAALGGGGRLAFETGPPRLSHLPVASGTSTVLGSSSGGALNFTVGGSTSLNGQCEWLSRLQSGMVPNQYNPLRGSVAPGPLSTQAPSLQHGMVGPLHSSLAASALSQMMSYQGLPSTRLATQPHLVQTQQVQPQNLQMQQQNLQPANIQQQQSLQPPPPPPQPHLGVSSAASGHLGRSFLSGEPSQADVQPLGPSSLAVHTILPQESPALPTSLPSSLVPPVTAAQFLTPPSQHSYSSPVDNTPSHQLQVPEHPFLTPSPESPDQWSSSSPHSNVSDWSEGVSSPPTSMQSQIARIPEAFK
T1 sequence (Q06330 whole entry): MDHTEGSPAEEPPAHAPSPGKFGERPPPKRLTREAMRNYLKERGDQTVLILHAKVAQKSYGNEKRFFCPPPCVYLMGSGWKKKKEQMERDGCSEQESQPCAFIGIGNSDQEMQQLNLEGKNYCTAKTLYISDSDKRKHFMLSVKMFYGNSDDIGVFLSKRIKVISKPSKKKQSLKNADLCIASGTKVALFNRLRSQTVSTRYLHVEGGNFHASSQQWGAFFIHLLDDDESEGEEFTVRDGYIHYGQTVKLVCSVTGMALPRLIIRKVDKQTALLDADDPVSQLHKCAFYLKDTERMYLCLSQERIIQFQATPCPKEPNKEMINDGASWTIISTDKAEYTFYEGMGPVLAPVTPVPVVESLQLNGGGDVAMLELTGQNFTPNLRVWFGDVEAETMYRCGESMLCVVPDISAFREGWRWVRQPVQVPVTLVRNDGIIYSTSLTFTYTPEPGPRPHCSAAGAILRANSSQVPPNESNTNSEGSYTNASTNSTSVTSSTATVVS
T2 sequence (P46531 1754-2555 limits assumed): as the sequence (P46531 1754-2555 limits assumed) above
T2 sequence (Q06330 whole entry): as the sequence (Q06330 whole entry) above

pull down of both ICN and CSL [1]	alpha helical content (circular dichroism) [6]	competing away ICN1 bound to immunoprecipitated MAML [7]	IC50 [12]	Compound	expression of the CSL-responsive reporter [2]	transcription from CSL responsive promoter (beta-lactamase) [3]	viability of MOLT4 cells [4]	viability of TALL1 cells [5]	effect of stapling on intracellular passage [8]	intracellular passage (cellular fluorescence) [8]	expression of HES1 [9]	expression of HEY1 [10]	viability of ALL-SIL cells [11]	viability of KOPTK1 cells ([12]; FIG. 16)	apoptotic response [13]	cytotoxicity to neoplastic murine lymphocytes [14]
can pull down both ICN and CSL	–	–	–	CC[C@H](C)[C@H](NC(=O)[C@H](CCCNC(=N)N)NC(=O)[C@H](CCCNC(=N)N)NC(=O)CCNC(=O)[C@H](CCCCNC(=O)CCCC[C@@H]1SC[C@@H]2NC(=O)N[C@@H]21)NC(C)=O)C(=O)N[C@@H](CCC(=O)O)C(=O)N[C@@H](CC(C)C)C(=O)N[C@@H](CS)C(=O)N[C@@H](CCCNC(=N)N)C(=O)N[C@@H](CCCNC(=N)N)C(=O)N[C@@H](Cc1c[nH]cn1)C(=O)N[C@@H](Cc1c[nH]cn1)C(=O)N[C@@]1(C)CCCC=CCCC[C@@](C)(C(=O)N[C@@H](CCCNC(=N)N)C(=O)N[C@@H](Cc2ccc(O)cc2)C(=O)N[C@@H](CCC(=O)O)C(=O)N[C@@H](C)C(=O)N[C@H](C(N)=O)C(C)C)NC(=O)[C@H](CCC(=O)O)NC(=O)[C@H](CS)NC(=O)[C@H]([C@@H](C)O)NC1=O [SAHN11] (Ac-K(Biotin)[βAla]RRIELCRRHH[S5]TCE[S5]RYEAV-NH2; staple 13-17; N-terminus assumed)	reduced expression of the CSL-responsive reporter in a dose-dependent manner	decreased transcription	reduced the viability of MOLT4 cells	reduced the viability of TALL1 cells	–	–	–	–	–	–	–	–
can pull down both ICN and CSL	96%	can compete away ICN1	8 µM	CC[C@H](C)[C@H](NC(=O)[C@H](CCCNC(=N)N)NC(=O)[C@H](CCCNC(=N)N)NC(=O)[C@H](CCCNC(=N)N)NC(=O)[C@H](CC(C)C)NC(=O)[C@H](CCCNC(=N)N)NC(=O)[C@H](CCC(=O)O)NC(=O)CCNC(C)=O)C(=O)N[C@@]1(C)CCCC=CCCC[C@@](C)(C(=O)N[C@@H](Cc2c[nH]cn2)C(=O)N[C@@H](Cc2c[nH]cn2)C(=O)N[C@@H](CO)C(=O)N[C@H](C(N)=O)[C@@H](C)O)NC(=O)[C@H](CCCNC(=N)N)NC(=O)[C@H](CS)NC(=O)[C@H](CC(C)C)NC1=O [SAHN1] (Ac-[βAla]ERLRRRI[S5]LCR[S5]HHST-NH2; staple 9-13)	–	decreased transcription	–	–	stapling of the peptide did not, in this instance, appear to impact intracellular passage	exhibited significant intracellular passage	decrease expression of HES1	decrease expression of HES1 and HEY1	reduced the viability of ALL-SIL cells	reduced the viability of KOPTK1 cells	induces an apoptotic response	is cytotoxic to neoplastic murine lymphocytes
